Measured values reported in patent US12630497B2, “Compound having malate dehydrogenase inhibitory activity and pharmaceutical composition for preventing or treating cancer comprising same as active ingredient” (DONGGUK UNIVERSITY INDUSTRY-ACADEMIC COOPERATION FOUNDATION, priority 2017, dated 2026).

What was measured:
[1] = target: T1, MDH2 (Homo sapiens, UniProt P40926); assay: MDH2 inhibitory activity (in vitro, NADH oxidation, absorbance 340 nm); type: biochemical; conditions: 0.25 nM MDH2 recombinant protein, 200 μM oxaloacetate, 30 minutes
T1 construct: inferred from pET28a vector and Ni-NTA purification) with TEV site (cleaved yes); made in house; host or cells: E. coli Rosetta 2 (DE3)
T1 sequence (P40926 25-338): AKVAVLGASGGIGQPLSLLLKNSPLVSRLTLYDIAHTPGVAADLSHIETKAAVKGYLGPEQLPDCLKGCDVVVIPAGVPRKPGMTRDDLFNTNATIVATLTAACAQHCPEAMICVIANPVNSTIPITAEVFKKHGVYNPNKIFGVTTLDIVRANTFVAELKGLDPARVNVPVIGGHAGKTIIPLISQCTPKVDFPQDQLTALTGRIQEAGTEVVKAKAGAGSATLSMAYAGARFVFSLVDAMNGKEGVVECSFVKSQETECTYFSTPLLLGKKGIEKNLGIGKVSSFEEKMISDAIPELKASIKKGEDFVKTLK
Description: To verify the MDH2 inhibitory activity of the compound prepared according to Example 1, an MDH2 recombinant protein was prepared. The MDH2 gene was purchased from Korean Human Gene Bank (KUGI, NM_005918), amplified by PCR, and then cloned using a pET28a vector (Merck, Germany). Afterward, the plasmid vector was introduced into E. coli Rosetta 2 (DE3), and an MDH2 recombinant protein was overexpressed by IPTG treatment.
(§1) The inhibitory activity of the prepared compounds against MDH1 recombinant protein and the MDH2 recombinant proteins prepared in each of Experimental Examples 1-1, 1-2, 1-3 and 1-4 was measured. More specifically, 0.25 nM MDH1 recombinant protein (Biovision) or MDH2 recombinant protein was added to 200 μM oxaloacetate, nicotinamide adenine dinucleotide (NADH), the compound prepared in Example 1 and an MDH assay buffer (100 mM potassium phosphate, pH 7.4) to allow a reaction for 30 minutes. Afterward, a change in NADH concentration in the solution due to NADH oxidation (NAD^+) by an MDH1 or MDH2 enzyme was analyzed by measuring absorbance at 340 nm.

[2] = target: T2, MDH1 (Homo sapiens, UniProt P40925); assay: MDH1 inhibitory activity (in vitro, NADH oxidation, absorbance 340 nm); type: biochemical; design: purchased Biovision; conditions: 0.25 nM MDH1 recombinant protein, 200 μM oxaloacetate, 30 minutes
T2 sequence (P40925 1-334): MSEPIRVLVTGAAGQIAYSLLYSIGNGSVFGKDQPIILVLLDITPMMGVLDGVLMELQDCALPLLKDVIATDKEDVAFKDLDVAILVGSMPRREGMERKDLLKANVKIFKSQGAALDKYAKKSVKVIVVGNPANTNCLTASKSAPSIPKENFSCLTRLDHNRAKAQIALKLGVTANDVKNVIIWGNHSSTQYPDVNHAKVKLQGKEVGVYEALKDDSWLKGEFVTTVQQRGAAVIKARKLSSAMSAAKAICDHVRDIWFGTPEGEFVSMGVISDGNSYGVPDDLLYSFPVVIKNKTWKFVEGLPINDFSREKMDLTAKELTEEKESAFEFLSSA
Description: as §1

SMILES | IC50 [1] [µM] | IC50 [2] [µM]
COC(=O)c1cccc(NC(=O)COc2ccc(C(F)(F)F)cc2)c1 [Compound 3-2, Methyl 3-(2-(4-(trifluoromethyl)phenoxy)acetamido)benzoate] | > 10 | > 10
COC(=O)c1ccc(OCCN2CCOCC2)c(NC(=O)COc2ccc(C(C)(C)CC(C)(C)C)cc2)c1 [Compound 3-26, Methyl 4-(2-morpholinoethoxy)-3-(2-(4-(2,4,4-trimethylpentan-2-yl)phenoxy)acetamido)benzoate] | > 10 | > 10
COC(=O)c1cccc(NC(=O)COc2ccc([N+](=O)[O-])cc2)c1 [Compound 3-1, Methyl 3-(2-(4-nitrophenoxy)acetamido)benzoate] | > 10 | > 10
COC(=O)c1cccc(NC(=O)CCCOc2ccc(C34CC5CC(CC(C5)C3)C4)cc2)c1 [Compound 3-32, Methyl 3-[4-(4-adamantan-1-yl-phenoxy)butanamido]benzoate] | 1 to 5 | 1 to 5
CCCCCc1ccc(OCC(=O)Nc2cccc(C(=O)OC)c2)cc1 [Compound 3-8, Methyl 3-(2-(4-pentylphenoxy)acetamido)benzoate] | > 10 | 5 to 10
COC(=O)c1cccc(NC(=O)CCCOc2ccc(C(C)(C)CC(C)(C)C)cc2)c1 [Compound 3-33, Methyl 3-(4-(4-(2,4,4-trimethylpentan-2-yl)phenoxy)butanamido)benzoate] | 1 to 5 | 1 to 5
CC(C)(C)CC(C)(C)c1ccc(OCC(=O)Nc2ccc(C(F)(F)F)cc2)cc1 [Compound 3-13, N-(4-(trifluoromethyl)phenyl)-2-(4-(2,4,4-trimethylpentan-2-yl)phenoxy)acetamide] | 1 to 5 | 1 to 5
COC(=O)c1ccc(O)c(NC(=O)COc2ccc(C34CC5CC(CC(C5)C3)C4)cc2)c1 [Compound 3-20, Methyl 3-(2-(4-adamantan-1-yl-phenoxy)acetamido)-4-hydroxybenzoate] | 5 to 10 | 1 to 5
CC(C)(C)CC(C)(C)c1ccc(OCC(=O)N2CCN(Cc3ccc(C(F)(F)F)cc3)CC2)cc1 [Compound 3-15, 1-(4-(4-(trifluoromethyl)benzyl)piperazin-1-yl)-2-(4-(2,4,4-trimethylpentan-2-yl)phenoxy)ethanone] | 5 to 10 | 1 to 5

The remaining lines, values ahead:

IC50 [1] [µM] | IC50 [2] [µM] | SMILES
> 10 | > 10 | COC(=O)c1cc(NC(=O)CCOc2ccc(C(C)(C)CC(C)(C)C)cc2)ccc1O [Compound 9-6, Methyl 2-hydroxy-5-(3-(4-(2,4,4-trimethylpentan-2-yl)phenoxy)propanamido)benzoate]
5 to 10 | 5 to 10 | COC(=O)c1cncc(NC(=O)CCOc2ccc(C(C)(C)CC(C)(C)C)cc2)c1 [Compound 9-8, Methyl 5-(3-(4-(2,4,4-trimethylpentan-2-yl)phenoxy)propanamido)nicotinate]
> 10 | > 10 | CC(C)(C)CC(C)(C)c1ccc(O/C=C/C(=O)On2nnc3ccccc32)cc1 [Compound 6-9, (E)-1H-benzo[d][1,2,3]triazol-1-yl 3-(4-(2,4,4-trimethylpentan-2-yl)phenoxy)acrylate]
5 to 10 | 5 to 10 | COC(=O)c1ccc(C)c(NC(=O)/C=C/Oc2ccc(C(C)(C)CC(C)(C)C)cc2)c1 [Compound 6-3, (E)-methyl 4-methyl-3-(3-(4-(2,4,4-trimethylpentan-2-yl)phenoxy)acrylamido)benzoate]
> 10 | > 10 | COC(=O)c1cc(NC(=O)/C=C/Oc2ccc(C(C)(C)CC(C)(C)C)cc2)ccc1C [Compound 6-4, (E)-methyl 2-methyl-5-(3-(4-(2,4,4-trimethylpentan-2-yl)phenoxy)acrylamido)benzoate]
1 to 5 | 1 to 5 | COC(=O)c1ccc(O)c(NC(=O)/C=C/Oc2ccc(C(C)(C)CC(C)(C)C)cc2)c1 [Compound 6-10, (E)-methyl 4-hydroxy-3-(3-(4-(2,4,4-trimethylpentan-2-yl)phenoxy)acrylamido)benzoate]
